# Measurements from patent US20170313808A1, “BIOACTIVE POLYMERIC LIQUID FORMULATIONS OF ABSORBABLE, SEGMENTED APLIPHATIC POLYURETHANE COMPOSITIONS” (priority 2008, published 2017).
# Test system: SKOV3
# Test: Testing with ovarian cancer cell lines (SKOV3)
# Type: cell-based
# Conditions: ovarian cancer cell line SKOV3
row,SMILES,Additional Uses and Properties
1,OC(Cn1cncn1)(Cn1cncn1)c1ccc(F)cc1F [Fluconazole],Antineoplastic (as per testing
2,Cc1oncc1C(=O)Nc1ccc(C(F)(F)F)cc1 [Leflunomide],"Antineoplastic, as per testing"
3,Clc1ccc(COC(Cn2ccnc2)c2ccc(Cl)cc2Cl)c(Cl)c1 (stereo not drawn) [Miconazole],Antineoplastic (as per testing
4,CO[C@@]12[C@H](COC(N)=O)C3=C(C(=O)C(C)=C(N)C3=O)N1C[C@@H]1N[C@@H]12 [Mitomycin],"Antineoplastic, as per testing"

# Test system: S aureous
# Test: Antibacterial testing with S aureous
# Type: cell-based
# Conditions: not given
row,SMILES,Additional Uses and Properties
1,O=c1[nH]cc(F)c(=O)[nH]1 [5-Fluorouracil],Antibacterial as per testing
2,CC(=O)O[C@H]1C(=O)[C@@]2(C)[C@H]([C@H](OC(=O)c3ccccc3)[C@]3(O)C[C@H](OC(=O)[C@H](O)[C@@H](NC(=O)c4ccccc4)c4ccccc4)C(C)=C1C3(C)C)[C@]1(OC(C)=O)CO[C@@H]1C[C@@H]2O [Paclitaxel],Antibacterial as per testing
